Like-named read-outs stand apart in the source and are kept apart here.
How the values were obtained:
[1] = biological target: human CB1 receptor (hCB1) (Homo sapiens, UniProt P21554); assay: cell-based; type: cell-based; conditions: for +/− HCB1: agonist or inverse agonist at hCB1
How it was run: (§1)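 Agonism or inverse agonism was assessed as change in intracellular cAMP in CHO-K1 cells expressing human CB1 or rat CB2 (genomic DNA, pcDNA3.1).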

[2] = biological target: T1, rat CB2 receptor (rCB2) (Rattus norvegicus, UniProt Q9QZN9); assay: cell-based; type: cell-based; conditions: for +/− RCB2: agonist or inverse agonist at rCB2
T1 sequence (Q9QZN9 1-360): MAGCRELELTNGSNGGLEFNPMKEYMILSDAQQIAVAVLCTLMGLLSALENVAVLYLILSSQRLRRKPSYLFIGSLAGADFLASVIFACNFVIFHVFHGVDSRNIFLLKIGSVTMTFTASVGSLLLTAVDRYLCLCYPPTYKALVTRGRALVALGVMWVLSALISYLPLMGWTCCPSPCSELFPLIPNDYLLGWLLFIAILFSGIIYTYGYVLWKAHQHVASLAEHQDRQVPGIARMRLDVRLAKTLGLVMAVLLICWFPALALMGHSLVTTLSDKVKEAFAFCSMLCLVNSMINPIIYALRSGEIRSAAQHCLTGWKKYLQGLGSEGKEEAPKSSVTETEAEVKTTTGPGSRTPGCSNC
How it was run: as §1

Chain of human CB1 receptor (hCB1) (P21554 whole entry): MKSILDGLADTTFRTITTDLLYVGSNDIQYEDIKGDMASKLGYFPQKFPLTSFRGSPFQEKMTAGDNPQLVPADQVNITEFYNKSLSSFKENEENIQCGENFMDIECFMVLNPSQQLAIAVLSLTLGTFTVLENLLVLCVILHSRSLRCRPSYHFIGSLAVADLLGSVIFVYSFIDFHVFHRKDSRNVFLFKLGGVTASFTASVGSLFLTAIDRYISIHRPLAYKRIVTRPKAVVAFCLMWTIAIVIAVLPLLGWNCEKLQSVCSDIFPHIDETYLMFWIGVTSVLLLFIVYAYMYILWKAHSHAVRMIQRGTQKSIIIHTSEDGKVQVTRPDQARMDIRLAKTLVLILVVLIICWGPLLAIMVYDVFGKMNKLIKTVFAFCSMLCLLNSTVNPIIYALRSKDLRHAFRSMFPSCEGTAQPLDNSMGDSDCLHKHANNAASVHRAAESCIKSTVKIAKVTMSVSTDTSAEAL

| Structure (SMILES) | EC50 [1] [nM] | +/− RCB2 [2] | +/− HCB1 [1] | EC50 ([1]; groups >100 nM-10 μM and >10 μM, cAMP, CHO-K1 hCB1, read-out: EC50 HCB1) [nM] | EC50 [2] [µM] |
| --- | --- | --- | --- | --- | --- |
| CNC(=O)[C@H](CC(C)C)NC(=O)c1nc(-c2ccc(Cl)cc2F)n2c1CN(C)CCC2 [Compound 529, (S)-3-(4-chloro-2-fluorophenyl)-8-methyl-N-(4-methyl-1-(methylamino)-1-oxopentan-2-yl)-6,7,8,9-tetrahydro-5H-imidazo[1,5-a][1,4]diazepine-1-carboxamide] | > 10000 | + |  |  |  |
| CNC(=O)[C@H](CC(C)C)NC(=O)c1nc(-c2ccc(F)cc2)n2c1CN(C)CCC2 [Compound 530, (S)-3-(4-fluorophenyl)-8-methyl-N-(4-methyl-1-(methylamino)-1-oxopentan-2-yl)-6,7,8,9-tetrahydro-5H-imidazo[1,5-a][1,4]diazepine-1-carboxamide] | > 10000 | + |  |  |  |
| CNC(=O)[C@H](CC(C)C)NC(=O)c1nc(-c2cccc(F)c2)n2c1CN(C)CCC2 [Compound 531, (S)-3-(3-fluorophenyl)-8-methyl-N-(4-methyl-1-(methylamino)-1-oxopentan-2-yl)-6,7,8,9-tetrahydro-5H-imidazo[1,5-a][1,4]diazepine-1-carboxamide] | > 10000 | + |  |  |  |
| CNC(=O)[C@H](CC(C)C)NC(=O)c1nc(-c2cc(F)ccc2F)n2c1CN(C)CCC2 [Compound 532, (S)-3-(2,5-difluorophenyl)-8-methyl-N-(4-methyl-1-(methylamino)-1-oxopentan-2-yl)-6,7,8,9-tetrahydro-5H-imidazo[1,5-a][1,4]diazepine-1-carboxamide] | > 10000 | − |  |  |  |
| CNC(=O)[C@H](CC(C)C)NC(=O)c1nc(-c2ccc(C(F)(F)F)cc2F)n2c1CN(C)CCC2 [Compound 533, (S)-3-(2-fluoro-4-(trifluoromethyl)phenyl)-8-methyl-N-(4-methyl-1-(methylamino)-1-oxopentan-2-yl)-6,7,8,9-tetrahydro-5H-imidazo[1,5-a][1,4]diazepine-1-carboxamide] | > 10000 | + |  |  |  |
| CNC(=O)[C@H](CC(C)C)NC(=O)c1nc(-c2ccc(F)cc2F)n2c1CN(C)CCC2 [Compound 534, (S)-3-(2,4-difluorophenyl)-8-methyl-N-(4-methyl-1-(methylamino)-1-oxopentan-2-yl)-6,7,8,9-tetrahydro-5H-imidazo[1,5-a][1,4]diazepine-1-carboxamide] | > 10000 | + |  |  |  |
| CNC(=O)[C@H](CC(C)C)NC(=O)c1nc(-c2ccc(F)c(F)c2)n2c1CN(C)CCC2 [Compound 535, (S)-3-(3,4-difluorophenyl)-8-methyl-N-(4-methyl-1-(methylamino)-1-oxopentan-2-yl)-6,7,8,9-tetrahydro-5H-imidazo[1,5-a][1,4]diazepine-1-carboxamide] | > 10000 | + |  |  |  |
| CNC(=O)[C@H](CC(C)C)NC(=O)c1nc(-c2cc(Cl)ccc2F)n2c1CN(C)CCC2 [Compound 536, (S)-3-(5-chloro-2-fluorophenyl)-8-methyl-N-(4-methyl-1-(methylamino)-1-oxopentan-2-yl)-6,7,8,9-tetrahydro-5H-imidazo[1,5-a][1,4]diazepine-1-carboxamide] | > 10000 | + |  |  |  |
| CNC(=O)[C@H](CC(C)C)NC(=O)c1nc(-c2ccc(F)c(Cl)c2)n2c1CN(C)CCC2 [Compound 537, (S)-3-(3-chloro-4-fluorophenyl)-8-methyl-N-(4-methyl-1-(methylamino)-1-oxopentan-2-yl)-6,7,8,9-tetrahydro-5H-imidazo[1,5-a][1,4]diazepine-1-carboxamide] | > 10000 | + |  |  |  |
| CNC(=O)[C@H](CC(C)C)NC(=O)c1nc(-c2cc(F)c(F)cc2F)n2c1CN(C)CCC2 [Compound 538] |  | + | + |  |  |
| CNC(=O)[C@H](CC(C)C)NC(=O)c1nc(-c2cc(Cl)c(F)cc2F)n2c1CN(C)CCC2 [Compound 539, (S)-3-(5-chloro-2,4-difluorophenyl)-8-methyl-N-(4-methyl-1-(methylamino)-1-oxopentan-2-yl)-6,7,8,9-tetrahydro-5H-imidazo[1,5-a][1,4]diazepine-1-carboxamide] |  | + | + |  |  |
| CNC(=O)[C@H](CC(C)C)NC(=O)c1nc(C2CCCCC2)n2c1CN(C)CCC2 [Compound 540, (S)-3-cyclohexyl-8-methyl-N-(4-methyl1-1-(methylamino)-1-oxopentan-2-yl)-6,7,8,9-tetrahydro-5H-imidazo[1,5-a][1,4]diazepine-1-carboxamide] |  | + |  | > 10000 |  |
| CNC(=O)[C@@H](NC(=O)c1nc(-c2cc(F)c(F)cc2F)n2c1CN(C)CCC2)C1CCCCC1 [Compound 541, (S)-N-(1-cyclohexyl-2-(methylamino)-2-oxoethyl)-8-methyl-3-(2,4,5-trifluorophenyl)-6,7,8,9-tetrahydro-5H-imidazo[1,5-a][1,4]diazepine-1-carboxamide] |  | + | + |  |  |
| CNC(=O)[C@@H](NC(=O)c1nc(-c2cc(Cl)c(F)cc2F)n2c1CN(C)CCC2)C1CCCCC1 [Compound 542, (S)-3-(5-chloro-2,4-difluorophenyl)-N-(1-cyclohexyl-2-(methylamino)-2-oxoethyl)-8-mehtyl-6,7,8,9-tetrahydro-5H-imidazo[1,5-a][1,4]diazepine-1-carboxamide] |  | + | + |  |  |
| CNC(=O)[C@@H](NC(=O)c1nc(-c2ccccc2)n2c1CN(C)CCC2)c1ccccc1 [Compound 543, (S)-8-methyl-N-(2-(methylamino)-2-oxo-1-phenylethyl)-3-phenyl-6,7,8,9-tetrahydro-5H-imidazo[1,5-a][1,4]diazepine-1-carboxamide] | > 10000 | + |  |  |  |
| CNC(=O)[C@H](CC(C)(C)C)NC(=O)c1nc(-c2ccc(Cl)cc2F)n2c1CN(C)CCC2 [Compound 544, (S)-3-(4-chloro-2-fluorophenyl)-N-(4,4-dimethyl-1-(methylamino)-1-oxopentan-2-yl)-8-methyl-6,7,8,9-tetrahydro-5H-imidazo[1,5-a][1,4]diazepine-1-carboxamide] |  | + | + |  |  |
| CNC(=O)[C@H](CC(C)(C)C)NC(=O)c1nc(-c2cc(Cl)ccc2F)n2c1CN(C)CCC2 [Compound 545, (S)-3-(5-chloro-2-fluorophenyl)-N-(4,4-dimethyl-1-(methylamino)-1-oxopentan-2-yl)-8-methyl-6,7,8,9-tetrahydro-5H-imidazo[1,5-a][1,4]diazepine-1-carboxamide] |  | + | + |  |  |
| CNC(=O)[C@H](CC(C)(C)C)NC(=O)c1nc(-c2ccc(F)cc2)n2c1CN(C)CCC2 [Compound 547, (S)-N-(4,4-dimethyl-1-(methylamino)-1-oxopentan-2-yl)-3-(4-fluorophenyl)-8-methyl-6,7,8,9-tetrahydro-5H-imidazo[1,5-a][1,4]diazepine-1-carboxamide] |  | + | + |  |  |
| CNC(=O)[C@H](CC(C)(C)C)NC(=O)c1nc(-c2cccc(F)c2)n2c1CN(C)CCC2 [Compound 548, (S)-N-(4,4-dimethyl-1-(methylamino)-1-oxopentan-2-yl)-3-(3-fluorophenyl)-8-methyl-6,7,8,9-tetrahydro-5H-imidazo[1,5-a][1,4]diazepine-1-carboxamide] |  | + | + |  |  |
| CNC(=O)[C@H](CC(C)(C)C)NC(=O)c1nc(-c2ccc(F)cc2F)n2c1CN(C)CCC2 [Compound 549, (S)-3-(2,4-difluorophenyl)-N-(4,4-dimethyl-1-(methylamino)-1-oxopentan-2-yl)-8-methyl-6,7,8,9-tetrahydro-5H-imidazo[1,5-a][1,4]diazepine-1-carboxamide] | > 10000 |  |  |  | > 10 |
| CNC(=O)[C@H](CC(C)(C)C)NC(=O)c1nc(-c2ccc(Cl)c(F)c2)n2c1CN(C)CCC2 [Compound 550, (S)-3-(4-chloro-3-fluorophenyl)-N-(4,4-dimethyl-1-(methylamino)-1-oxopentan-2-yl)-8-methyl-6,7,8,9-tetrahydro-5H-imidazo[1,5-a][1,4]diazepine-1-carboxamide] | > 10000 | − |  |  |  |
| CNC(=O)[C@H](CC(C)(C)C)NC(=O)c1nc(-c2ccc(C(F)(F)F)cc2F)n2c1CN(C)CCC2 [Compound 551, (S)-N-(4,4-dimethyl-1-(methylamino)-1-oxopentan-2-yl)-3-(2-fluoro-4-(trifluoromethyl)phenyl)-8-methyl-6,7,8,9-tetrahydro-5H-imidazo[1,5-a][1,4]diazepine-1-carboxamide] |  | + | + |  |  |
| CNC(=O)[C@H](CC(C)(C)C)NC(=O)c1nc(-c2ccc(F)c(F)c2)n2c1CN(C)CCC2 [Compound 552, (S)-3-(3,4-diflurophenyl)-N-(4,4-dimethyl-1-(methylamino)-1-oxopentan-2-yl)-8-methyl-6,7,8,9-tetrahydro-5H-imidazo[1,5-a][1,4]diazepine-1-carboxamide] |  | + | + |  |  |
| CNC(=O)[C@H](CC(C)(C)C)NC(=O)c1nc(-c2cc(F)ccc2F)n2c1CN(C)CCC2 [Compound 553, (S)-3-(2,5-difluorophenyl)-N-(4,4-dimethyl-1-(methylamino)-1-oxopentan-2-yl)-8-methyl-6,7,8,9-tetrahydro-5H-imidazo[1,5-a][1,4]diazepine-1-carboxamide] | > 10000 |  |  |  | > 10 |

— US7517874B2 (priority 2007, dated 2009)
